What was measured:
[1] = Regular water solubility test; assay type: physicochemical; conditions: thermodynamic from solid, room temperature
Experimental: Water solubility tests for the salts as described herein were performed as follows unless otherwise stated. 0.05 g of each salt was weighed in a flask and the mass of flask+salt (m-vs) was recorded. Water was slowly added dropwise into the flask with salt until full dissolution was achieved as observed by the naked eye. The mass of flask+salt+solvent (m-sys) was recorded.
(s) stands for the weight of the salt measured in kg,
(m-sys) stands for the mass of the flask+salt+solvent measured in kg, and
(m-vs) stands for the mass of the flask+salt measured in kg.

[2] = Flask method water solubility test; assay type: physicochemical; conditions: saturated solution equilibrated at least 24 hours, room temperature
Experimental: In some cases, a further water solubility test (Flask method water solubility test) was performed as follows. An excess of salt was added to water. The mixture was equilibrated (shaking) for at least 24 hours thereby providing a saturated salt solution. Then the saturated solution was clear-filtered and transferred into a clean pre-weighed flask (mv). The mass of flask+saturated solution (mvs) was recorded. The solvent was evaporated under reduced pressure until constant mass. Flask containing dried residue was weighed (mvdr). The solubility expressed as “grams of solute/kg of solvent”, i.e. “grams of salt/kg of solvent”, was calculated according to the equation: […]
(mvdr-mv) is the weight difference in kg between (i) the mass of the flask containing dried residue after evaporation of the solvent and (ii) the mass of the flask, and
(mvs-mvdr) is the weight difference in kg between (i) the mass of the flask including the saturated salt solution and (ii) the mass of the flask containing the dried residue.

[3] = Hygroscopicity test; assay type: physicochemical; conditions: 30° C., one week; for hygroscopicity (in words): any tested relative humidity
Experimental: Hygroscopicity tests of the salts were performed by keeping exact weight samples of the different salts at varied humidity at 30° C. After one week, the samples were weighed again and based on the original weight the percentage weight difference was calculated.
In the followed hygroscopicity test, the change in weight was measured after each acidic salt of (+)-3-(2,3-difluorophenyl)-3-methoxypyrrolidine was exposed for a week under the condition of 30° C. and different relative humidities (RH) 0 to 97%.

[4] = target: T1, human sigma 1 receptor (Homo sapiens, UniProt Q99720); experiment: In vitro competition binding assay, human sigma 1 receptor; conditions: 1.0 E-5 M test compound, 15 nM [3H] pentazocine, duplicate, mean value; read-out: Percent inhibition of the control radioligand specific binding
T1 construct: Cell membrane homogenates (150 μg protein) were incubated for 120 min at 37° C. with 15 nM; endogenous in cells; inferred to be Jurkat human T lymphocytes from the cited method (Ganapathy et al. 1999)
T1 sequence (Q99720 whole entry): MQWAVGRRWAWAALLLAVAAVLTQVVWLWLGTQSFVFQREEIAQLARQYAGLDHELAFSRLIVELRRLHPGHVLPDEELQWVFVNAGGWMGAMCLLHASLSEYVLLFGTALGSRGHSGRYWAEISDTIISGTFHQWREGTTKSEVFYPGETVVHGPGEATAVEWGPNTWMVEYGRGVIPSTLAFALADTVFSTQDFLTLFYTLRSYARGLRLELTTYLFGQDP
Experimental: The binding affinity of the fumaric acid salt of (+)-3-(2,3-difluorophenyl)-3-methoxypyrrolidine at the human sigma 1 receptor was determined by a competition binding assay similar to what is described in […], M. E., PRASAD, P. D., HUANG, W., SETH, P., LEIBACH, F. H. and […], V. (1999), Molecular and ligand-binding characterization of the σ-receptor in the Jurkat human T lymphocyte cell line, J. Pharmacol. Exp. Ther., 289: 251.
Cell membrane homogenates (150 μg protein) were incubated for 120 min at 37° C. with 15 nM [^3H] pentazocine in the absence or presence of the test compound in a buffer containing 50 mM Tris-HCl (pH 8).
Nonspecific binding was determined in the presence of 10 μM haloperidol.
Following incubation, the samples were filtered under vacuum through glass fiber filters (GF/B, Packard) presoaked with 0.3% PEI and rinsed several times with ice-cold 50 mM Tris-HCl using a 96-sample cell harvester (Unifilter, Packard). The filters were dried then counted for radioactivity in a scintillation counter (Topcount, Packard) using a scintillation cocktail (Microscint 0, Packard).
The results were expressed as a percent inhibition of the control radioligand specific binding.
The standard reference compound was haloperidol, which was tested in each experiment at several concentrations to obtain a competition curve from which its IC50 value was calculated. […]

[5] = Crystalline phase at tested relative humidity; assay type: physicochemical; conditions: any tested relative humidity

SMILES	solubility [1] [mg/mL]	solubility ([2]; water, thermodynamic from solid) [mg/mL]	hygroscopicity (in words) ([3]; listed as Example 11)	hygroscopicity (in words) ([3]; listed as salt of Formula IIb)	Weight difference (%) ([3]; relative humidity 0%)	Weight difference (%) ([3]; relative humidity 6%)	Weight difference (%) ([3]; relative humidity 11%)	Weight difference (%) ([3]; relative humidity 22%)	Weight difference (%) ([3]; relative humidity 32%)	Weight difference (%) ([3]; relative humidity 43%)	Weight difference (%) ([3]; relative humidity 56%)	Weight difference (%) ([3]; relative humidity 73%)	Weight difference (%) ([3]; relative humidity 84%)	Weight difference (%) ([3]; relative humidity 97%)	inhibition at 10 µM [4] [%]	change of crystalline phase with humidity (in words) [5]	Solubility in water (Flask method water solubility test) [2] [mg/mL]
CO[C@]1(c2cccc(F)c2F)CCNC1.O=C(O)/C=C/C(=O)O [Example 7, fumarate Salt of (+)-3-(2,3-difluorophenyl)-3-methoxypyrrolidine]	34	74.1	does not adsorb or desorb water at any humidity	not being hygroscopic	−0.07	−0.14	0.11	0.15	0.13	0.07	0.19	0.06	0.00	0.16	79.1	not changing in its crystalline phase at any tested relative humidity	–
COC1(c2cccc(F)c2F)CCNC1.Cl (stereo not drawn) [Example 8, Hydrochloric Acid Salt of (+)-3-(2,3-difluorophenyl)-3-methoxypyrrolidine]	–	–	–	–	0.00	−0.07	−0.06	−0.15	0.00	−0.13	−0.14	−0.13	25.77	99.12	–	–	–
COC1(c2cccc(F)c2F)CCNC1.O=C(O)C(O)C(O)C(=O)O [Example 9, L-Tartaric acid salt of (+)-3-(2,3-difluorophenyl)-3-methoxypyrrolidine]	–	–	–	–	−2.36	−0.67	−0.14	2.40	2.16	1.71	1.99	1.90	2.13	2.39	–	–	–
COC1(c2cccc(F)c2F)CCNC1.O=C(O)C[C@H](O)C(=O)O [Example 13, L-Malic Acid Salt of (+)-3-(2,3-difluorophenyl)-3-methoxypyrrolidine]	–	–	–	–	−0.07	0.00	−0.13	−0.08	0.00	−0.22	−0.06	0.07	0.40	34.37	–	–	–
COC1(c2cccc(F)c2F)CCNC1.O=C(O)C(=O)O (stereo not drawn) [Reference Example 19, oxalic Acid Salt of (+)-3-(2,3-difluorophenyl)-3-methoxypyrrolidine, reference compound]	–	–	–	–	0.00	0.00	−0.21	0.00	0.11	−0.05	0.00	−0.05	−0.15	0.26	–	–	28

Source: US11078158B2, “(+)-3-(2,3-difluorophenyl)-3-methoxypyrrolidine or pharmaceutically acceptable salts thereof, a process for preparation thereof and uses thereof” (INTEGRATIVE RESEARCH LABORATORIES SWEDEN AB, priority 2017, dated 2021)
